Source: patent US12389910B2, “Beta-lactams and their use as herbicides” (BASF SE, priority 2020, dated 2025)

Columns and labels:
ALOMY = test: greenhouse herbicidal activity, post-emergence treatment; assay type: in vivo, Alopercurus myosuroides; conditions: post-emergence method, scale 0 to 100
From the text: (§1) The culture containers used were plastic flowerpots containing loamy sand with approximately 3.0% of humus as the substrate. The seeds of the test plants were sown separately for each species.
(§2) For the pre-emergence treatment, the active ingredients, which had been suspended or emulsified in water, were applied directly after sowing by means of finely distributing nozzles. The containers were irrigated gently to promote germination and growth and subsequently covered with transparent plastic hoods until the test plants had rooted. This cover caused uniform germination of the test plants, unless this had been impaired by the active ingredients. For the post-emergence treatment, the test plants were first grown to a height of 3 to 15 cm, depending on the plant habit, and only then treated with the active ingredients which had been suspended or emulsified in water. For this purpose, the test plants were either sown directly and grown in the same containers, or they were first grown separately as seedlings and transplanted into the test containers a few days prior to treatment.
(§3) Depending on the species, the test plants were kept at 10-25° C. or 20-35° C., respectively. The test period extended over 2 to 4 weeks. During this time, the test plants were tended, and their response to the individual treatments was evaluated.
(§4) Evaluation was carried out using a scale from 0 to 100. […]

ABUTH [1] = test: greenhouse herbicidal activity, pre-emergence treatment; assay type: in vivo, Abutilon theophrasti; conditions: pre-emergence method, application rate 0,250 kg/ha; scale 0 to 100
From the text: as §1, §2, §3, §4

ECHCG [2] = test: as above; assay type: in vivo, Echinocloa crus-galli; conditions: pre-emergence method, application rate 0,250 kg/ha; scale 0 to 100
From the text: as §1, §2, §3, §4

ECHCG [3] = test: greenhouse herbicidal activity, post-emergence treatment; assay type: in vivo, Echinocloa crus-galli; conditions: post-emergence method, scale 0 to 100
From the text: as §1, §2, §3, §4

SETFA [4] = test: greenhouse herbicidal activity, pre-emergence treatment; assay type: in vivo, Setaria faberi; conditions: pre-emergence method, scale 0 to 100
From the text: as §1, §2, §3, §4

AMARE [5] = test: greenhouse herbicidal activity, post-emergence treatment; assay type: in vivo, Amaranthus retroflexus; conditions: post-emergence method, application rate 0,250 kg/ha; scale 0 to 100
From the text: as §1, §2, §3, §4

ABUTH [6] = test: as above; assay type: in vivo, Abutilon theophrasti; conditions: post-emergence method, scale 0 to 100
From the text: as §1, §2, §3, §4

LOLMU = test: as above; assay type: in vivo; conditions: post-emergence method, application rate 16.0 g/ha; scale 0 to 100
From the text: as §1, §2, §3, §4

AVEFA = test: as above; assay type: in vivo, Avena fatua; conditions: post-emergence method, scale 0 to 100
From the text: as §1, §2, §3
Evaluation was carried out using a scale from 0 to 100. 100 means no emergence of the test plants, or complete destruction of at least the aerial moieties, and 0 means no damage, or normal course of growth. A good herbicidal activity is given at values of 80 to 90 and a very good herbicidal activity is given at values of 90 to 100.
The test plants used in the greenhouse experiments were of the following species: Bayer code Scientific name

SETVI = test: as above; assay type: in vivo, Setaria viridis; conditions: post-emergence method, application rate 16.0 g/ha; scale 0 to 100
From the text: as §1, §2, §3, §4

APESV = test: greenhouse herbicidal activity, pre-emergence treatment; assay type: in vivo, Apera spica-venti; conditions: pre-emergence method, application rate 1,000 kg/ha; scale 0 to 100
From the text: as §1, §2, §3, §4

AMARE [7] = test: as above; assay type: in vivo, Amaranthus retroflexus; conditions: pre-emergence method, application rate 0,500 kg/ha; scale 0 to 100
From the text: as §1, §2, §3, §4

SETFA [8] = test: greenhouse herbicidal activity, post-emergence treatment; assay type: in vivo, Setaria faberi; conditions: post-emergence method, application rate 62.5 g/ha; scale 0 to 100
From the text: as §1, §2, §3, §4

## COC(=O)CC(C)NC(=O)C1(C)CN(c2cc(C)cc(F)c2)C1=O (stereo not shown) [compound 142]
ALOMY; application rate 0,250 kg/ha
  herbicidal activity against ALOMY: good (A good herbicidal activity is given at values of 80 to 90)
ABUTH [1]
  herbicidal activity against ABUTH: good (A good herbicidal activity is given at values of 80 to 90)

## COC(=O)[C@@H]1C=C[C@H](NC(=O)C2(C)CN(c3cc(C)cc(F)c3)C2=O)C1 (relative stereo) [compound 141]
ECHCG [2]
  herbicidal activity against ECHCG: good (A good herbicidal activity is given at values of 80 to 90)
ECHCG [3]; application rate 0,250 kg/ha
  herbicidal activity against ECHCG: good (A good herbicidal activity is given at values of 80 to 90)
SETFA [4]; application rate 0,250 kg/ha
  herbicidal activity against SETFA: good (A good herbicidal activity is given at values of 80 to 90)

## CCC1(C(=O)NC(C)CC(=O)OC)CN(c2cc(Cl)cc(Cl)c2)C1=O (stereo not shown) [compound 125]
AMARE [5]
  herbicidal activity against AMARE: good (A good herbicidal activity is given at values of 80 to 90)

## COC(=O)CC(C)NC(=O)C1CN(c2cc(Cl)cc(Cl)c2)C1=O (stereo not shown) [compound 131]
ABUTH [6]; application rate 1,000 kg/ha
  herbicidal activity against ABUTH: very good (a very good herbicidal activity is given at values of 90 to 100)

## COC(=O)C1C=CC(NC(=O)C2(C)CN(c3cccc(Cl)c3)C2=O)C1 (stereo not shown) [compound 136]
LOLMU
  herbicidal activity against LOLMU: very good (a very good herbicidal activity is given at values of 90 to 100)
AVEFA; application rate 16.0 g/ha
  herbicidal activity against AVEFA: very good (a very good herbicidal activity is given at values of 90 to 100)
SETVI
  herbicidal activity against SETVI: very good (a very good herbicidal activity is given at values of 90 to 100)

## COC(=O)CC(C)NC(=O)C1(C)CN(c2cc(Cl)cc(Cl)c2)C1=O (stereo not shown) [compound 11]
APESV
  herbicidal activity against APESV: very good (a very good herbicidal activity is given at values of 90 to 100)
ECHCG [3]; application rate 1,000 kg/ha
  herbicidal activity against ECHCG: very good (a very good herbicidal activity is given at values of 90 to 100)
SETFA [4]; application rate 1,000 kg/ha
  herbicidal activity against SETFA: very good (a very good herbicidal activity is given at values of 90 to 100)

## COC(=O)C1C=CC(NC(=O)C2(C)CN(c3ccc(F)c(C#N)c3)C2=O)C1 (stereo not shown) [compound 147]
ABUTH [6]; application rate 0,250 kg/ha
  herbicidal activity against ABUTH: very good (a very good herbicidal activity is given at values of 90 to 100)

## CCOC(=O)CC(C)NC(=O)C1(OC)CN(c2cc(Cl)cc(Cl)c2)C1=O (stereo not shown) [compound 13]
AMARE [7]
  herbicidal activity against AMARE: good (A good herbicidal activity is given at values of 80 to 90)

## CC1(C(=O)NC2C=CC(C(=O)O)C2)CN(c2cc(F)cc(F)c2)C1=O (stereo not shown) [compound 133]
SETFA [8]
  herbicidal activity against SETFA: very good (a very good herbicidal activity is given at values of 90 to 100)
AVEFA; application rate 62.5 g/ha
  herbicidal activity against AVEFA: very good (a very good herbicidal activity is given at values of 90 to 100)
ALOMY; application rate 62.5 g/ha
  herbicidal activity against ALOMY: good (A good herbicidal activity is given at values of 80 to 90)

## COC(=O)[C@@H]1C=C[C@H](NC(=O)C2(C)CN(c3cccc(OC(F)(F)C(F)F)c3)C2=O)C1 (relative stereo) [compound 146]
AVEFA; application rate 0,250 kg/ha
  herbicidal activity against AVEFA: good (A good herbicidal activity is given at values of 80 to 90)
